Read-outs that look alike come from different tables or passages of the source.
Legend:
[1] = accelerated stability testing; settings: anhydrous pregabalin, moisture content less than about 0.3% w/w
[2] = hygroscopicity of anhydrous pregabalin; assay type: physicochemical; settings: moisture content less than about 0.3% w/w
[3] = relative to (S)-(+)-pregabalin, type of activity not specified, cited from earlier work

## CC(C)CC(CN)CC(=O)O (stereo in doubt) [anhydrous pregabalin, (S)-(+)-3-aminomethyl-5-methyl-1-hexanoic acid]
[1]
  stability during the accelerated stability testing: stable
[2]
  hygroscopicity: non-hygroscopic

## CC(C)C[C@@H](CN)CC(=O)O (single isomer, unassigned) [(R)-(−)-enantiomer of pregabalin]
[3]
  times less active when compared with the (S)-(+)-enantiomer: about 40 times
[3]; listed as (R)-(−)-enantiomer
  times less active when compared with the (S)-(+)-enantiomer: 40 times
